Source: patent publication US10690683B2, “Methods of use for intermediate filament protein probes” (University of Connecticut, priority 2016, dated 2020)

Assays:
[1] = system: BHK-21 cells (mitochondrial movements); assay: Nocodazole treatment, time-lapse live imaging of BHK-21 cells with MitoTracker dye and WFA-Verde; format: cell-based, hamster; conditions: 10 μM Nocodazole
Experimental: BHK-21 cells were cultured in glass bottom plates and treated with MitoTracker® dye alone or separately with 10 μM Nocodazole. […] Time-lapse images were collected every 5 seconds in each of the four treatment groups.

vimentin and GFAP = conditions: laser injured mice, day 7, 1 μM intraperitoneal, sacrificed 24 h later
Source text: Mice of both sexes were anesthetized and subjected to 4 equally spaced laser burns focused on the retinal pigment epithelium (RPE). Using the Meridian laser attached to Micron III retinal fundus microscope (Phoenix Research labs) we used strong injury (150 mW with 50 msec pulse) to promote retinal gliosis with CNV.
The mouse imaging system (Micron III, Phoenix Research Labs, CA) provided with an image-guided Meridian Merilas 532 nm (Nd:YVO) laser was employed. Using the Diode laser 625-645 nm as an aiming beam the continuous wave, KTP frequency doubled Nd:YVO 532 nm laser was employed to deliver laser injuries in anesthetized mice. Here four (150 mW; 10-μm diameter, 50 msec duration) laser shots equally spaced around the optic nerve were delivered to disrupt the RPE. […] Mice were sacrificed 24 h later and eyes enucleated for tissue sectioning and antibody staining to vimentin and GFAP.

[2] = system: vimentin (p-Ser38Vimentin)
Source text: Cells were fixed, permeabilized, and prepared for immunohystochemistry (IHC) analysis.

[3] = system: mCherry-vimentin (soluble vimentin); assay: Live cell target detection in BHK-21 cells transfected with pmCherry-vimentin-N-18; format: cell-based, hamster; conditions: 250 nM, 5 min, early spreading cells
Source text: Soluble vimentin is a broad definition for the biochemical properties of vimentin forms that are extracted in low salt buffers (composed of tetramers, short oligomers, unit length filaments etc.). As such, these soluble vimentin forms are more dynamic structures. We employed a genetic approach to introduce a hybrid mCherry-vimentin construct to express vimentin as a fusion protein with the red fluorescent protein mCherry.
BHK-21 cells were transiently transfected with pmCherry-vimentin-N-18 plasmid (Adgene, MA) using lipofectamine, according to vendor instructions. Cells were trypsinized and replated in glass bottom culture plates (MatTek, MA) for 1 h in complete DMEM medium. […] Cells were immediately imaged live by epifluorescence microscopy, without fixation. […] Asterisks mark the position of the nucleus.

soluble vimentin = target: T1, soluble vimentin (Mesocricetus auratus, UniProt P02544); assay: Dynamic movement of vimentin structures, live imaging of BHK-21 cells; format: cell-based, hamster; conditions: 250 nM, 5 min, SF medium, images at 5 sec intervals
T1 construct: BHK-21 cells were plated in glass bottom culture plates for 18 h to promote spreading; endogenous in cells; host or cells: BHK-21

[4] = target: vimentin in corneal myofibroblasts (Mus musculus, UniProt P20152)
Experimental: Alkali injury to the cornea causes blindness due to the development of corneal fibrosis from overexpression of IF proteins in resident myofibroblasts. This model is extensively employed to investigate corneal fibrosis and role of IF proteins.
Thus, anesthetized mice were injured with alkali by application of 0.15N NaOH for 1 min to the cornea, eyes was extensively and the corneal epithelium gently removed. During the process of wound healing the resident keratocytes become activated into wound fibroblasts and subsequently into myofibroblasts to overexpress both vimentin and desmin, the two type III IFs in the cornea. Thus, heightened expression of these IF targets compared to uninjured corneas, the latter expressing very low levels of vimentin and no desmin, provided the rationale to compare uninjured mice. […] Mice were sacrificed after 1 h, eyes enucleated and cryosections were obtained.

[5] = target: T2, vimentin (Muller glial filaments) (Mus musculus, UniProt P20152); assay: In vivo delivery of probe to non injured mice, retina cryosections; conditions: 1 μM intraperitoneal, eyes enucleated after 24 h, FITC channel
T2 construct: from tissue; host or cells: mouse retina (in vivo, cryosections)
Source text: Cryosections of the eye were subjected to fixation and subsequently stained with anti-vimentin antibody (V9) to mark Muller glial filaments.

[6] = target: T3, vimentin associated with mitochondria (Mesocricetus auratus, UniProt P02544); assay: Co-staining with MitoTracker dye in live BHK-21 cells; format: cell-based, hamster; conditions: 250 nM, 5 mins, serum-free medium
T3 construct: endogenous in cells; host or cells: BHK-21
Experimental: BHK-21 cells were plated overnight and prior to staining placed in serum-free medium. […] Cells were washed and directly imaged live at dual wavelengths.

[7] = system: human vimentin-cherry hybrid; assay: Time-lapse imaging of BHK-21 cells expressing polymerized mCherry-vimentin; format: cell-based, hamster; conditions: 250 nM, 5 minutes, serum-free medium, BHK-21 cells with mCherry-vimentin, replated 18 h
Experimental: Transfection of human vimentin-cherry hybrid plasmid into fibroblasts and examination of polymerized vimentin structures under live cell imaging experiments identify numerous vimentin filaments that show some common, and yet, other distinct staining from the WFA-Verde-labeled structures. BHK-21 cells were transiently transfected with pmCherry-Vimentin-N-18 plasmid (Adgene, MA) using lipofectamine. Cells were cultured to establish the expression of plasmid and then trypsinzed and replated in glass culture plates for 18 h. […] Images at the starting point (T1), mid-point (T2) and at end of 3 minutes (T3).

[8] = target: T4, soluble vimentin species bound to motile mitochondrial species (Mesocricetus auratus, UniProt P02544); assay: Motility quantification of WFA-Verde-labeled particles in BHK-21 cells (FIJI/Image J); format: cell-based, hamster; conditions: 250 nM, images at 5 sec intervals
T4 construct: BHK-21 cells were plated in glass bottom culture plates for 18 h to promote spreading; endogenous in cells; host or cells: BHK-21
T4 sequence (P02544 2-465 limits assumed): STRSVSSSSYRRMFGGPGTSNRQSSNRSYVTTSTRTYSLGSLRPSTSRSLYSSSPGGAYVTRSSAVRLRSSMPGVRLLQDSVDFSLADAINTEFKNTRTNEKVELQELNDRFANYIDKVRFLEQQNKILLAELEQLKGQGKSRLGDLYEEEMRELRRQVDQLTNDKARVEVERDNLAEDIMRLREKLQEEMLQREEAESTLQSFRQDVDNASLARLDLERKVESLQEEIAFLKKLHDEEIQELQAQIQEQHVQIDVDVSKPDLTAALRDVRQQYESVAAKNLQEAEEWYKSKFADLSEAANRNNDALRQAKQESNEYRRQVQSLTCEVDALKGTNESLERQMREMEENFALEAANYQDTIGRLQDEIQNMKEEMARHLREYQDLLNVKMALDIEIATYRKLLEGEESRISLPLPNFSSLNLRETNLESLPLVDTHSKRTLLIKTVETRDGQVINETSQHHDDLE

Sequence of vimentin in corneal myofibroblasts (P20152 2-466 limits assumed): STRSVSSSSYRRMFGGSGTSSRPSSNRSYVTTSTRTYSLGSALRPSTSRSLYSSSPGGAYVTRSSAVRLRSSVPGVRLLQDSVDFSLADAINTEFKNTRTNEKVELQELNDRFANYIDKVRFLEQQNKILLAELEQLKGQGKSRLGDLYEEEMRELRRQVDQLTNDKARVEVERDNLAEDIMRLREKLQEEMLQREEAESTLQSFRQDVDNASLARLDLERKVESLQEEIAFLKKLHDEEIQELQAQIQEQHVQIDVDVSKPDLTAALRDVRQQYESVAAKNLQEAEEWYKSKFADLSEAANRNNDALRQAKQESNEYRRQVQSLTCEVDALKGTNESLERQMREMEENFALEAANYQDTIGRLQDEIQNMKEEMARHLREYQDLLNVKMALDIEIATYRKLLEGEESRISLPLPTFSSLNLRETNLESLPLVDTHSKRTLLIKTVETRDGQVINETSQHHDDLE
Sequence of mCherry-vimentin (soluble vimentin) (P08670 2-466 limits assumed): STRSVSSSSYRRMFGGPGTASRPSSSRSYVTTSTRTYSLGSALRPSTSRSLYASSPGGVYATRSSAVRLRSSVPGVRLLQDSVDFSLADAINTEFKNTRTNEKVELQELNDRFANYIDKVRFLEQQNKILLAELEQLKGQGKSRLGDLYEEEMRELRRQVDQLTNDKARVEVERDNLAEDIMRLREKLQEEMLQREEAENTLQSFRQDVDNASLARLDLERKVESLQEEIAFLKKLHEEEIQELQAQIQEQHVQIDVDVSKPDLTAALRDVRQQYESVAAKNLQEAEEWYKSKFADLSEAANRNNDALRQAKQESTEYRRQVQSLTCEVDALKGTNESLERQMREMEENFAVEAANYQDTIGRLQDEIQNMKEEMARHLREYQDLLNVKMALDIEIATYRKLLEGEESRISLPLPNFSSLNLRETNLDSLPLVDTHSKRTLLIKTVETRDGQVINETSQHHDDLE
Sequence of human vimentin-cherry hybrid (P08670 2-466 limits assumed): as above
T2 sequence (P20152 2-466 limits assumed): as the sequence (P20152 2-466 limits assumed) above
T1 sequence (P02544 2-465 limits assumed): as the sequence (P02544 2-465 limits assumed) above
T3 sequence (P02544 2-465 limits assumed): as above

speed of WFA-Verde labeled dot-like structure (soluble vimentin) [μm/sec]	metabolic conversion in vivo ([4]; mouse, in vivo, ip)	time to reach the target organ after systemic delivery ([4]; mouse, in vivo, ip) [h]	overlap of probe-stained vimentin structures with MitoTracker dye [6]	rate of movement of majority of motile WFA-Verde-labeled particles [8] [micrometer/second]	Compound	effect on movement of filaments ([1]; time-lapse every 5 seconds)	labeling of Muller glia at laser lesion (vimentin and GFAP)	labeling of vimentin structures in cell cytoplasm ([2]; 3.5 μM, 1 h, rabbit corneal fibroblast cells)	co-localization of probe with p-Ser38Vimentin ([2]; 3.5 μM, 1 h, rabbit corneal fibroblast cells, fixed, anti-pSer38Vimentin antibody)	effect on cytoskeleton ([2]; short exposure to higher dose (3.5 μM, 1 h), well spread cells)	co-localization with Vim-Cherry [3]	overlap between vimentin antibody staining and probe binding ([4]; alkali injured corneas, majority of labeled cells)	probe staining of corneas from injured eyes ([4]; alkali injured mice, day 14, intraperitoneal, sacrificed after 1 h)	probe staining of non-injured corneas ([4]; non-injured mice, intraperitoneal, sacrificed after 1 h, corneal stroma)	incorporation of probe into vimentin in non-gliotic retina [5]	staining of vimentin structures at low dose [7]	overlap of WFA-Verde and MitoTracker staining under nocodazole [1]
					COC(=O)Nc1nc2ccc(C(=O)c3cccs3)cc2[nH]1 [Nocodazole, nocodazole, reference compound]	causes filaments to be arrested in movements											
					CC1=C(COC(=O)CNC(=O)CCCCCNC(=O)COc2ccc(C3=[N+]4C(=Cc5ccc(-c6cccs6)n5[B-]4(F)F)C=C3)cc2)C(=O)OC(C(C)C2CCC3C4CC5OC56C(O)C=CC(=O)C6(C)C4CCC23C)C1 (stereo not drawn) [WFA-Rosa, Withaferin A-BODIPY-TR-X]		showed a similar pattern illuminating Muller glia										
~0.5	likely also not metabolically converted	≤ 1	extensive overlap	~0.01	Withaferin A-BODIPY-FL [WFA-Verde]		labeled the Muller glia extensively	does label both soluble and vimentin structures throughout the cell cytoplasm	extensive co-localization	did not dramatically alter the cytoskeleton	shows co-localization with Vim-Cherry	extensive overlap	abundance of WFA-Verde binding to corneal myofibroblasts	very low level of background staining	minimal incorporation	does not stain to all vimentin structures	extensive overlap
